Measurements: patent US20210205192A1, “ANTIMICROBIAL MIXTURE CONTAINING 4-(3-ETHOXY-4-HYDROXYPHENYL)BUTAN-2-ONE AND A DIOL, AND COSMETIC COMPOSITION CONTAINING SAME” (L'OREAL, priority 2017, published 2021)

How the values were obtained:
[1] = test system: Aspergillus niger ATCC 6275; assay: Synergistic antimicrobial activity as MIC (96-well microplate, optical density at 620 nm), Aspergillus niger; format: cell-based
From the text: (§1) FIC Index=(MICa with B/MICa)+(MICb with A/MICb)
(§2) with: • MICa with B: minimum concentration of product A in the combination A+B which makes it possible to obtain an inhibitory effect • MICb with A: minimum concentration of product B in the combination A+B which makes it possible to obtain an inhibitory effect. • MICa: minimum inhibitory concentration of product A alone. • MICb: minimum inhibitory concentration of product B alone.
(§3) As regards the combinations tested, MICa with b and MICb with a are the respective concentrations of A and of B in the combinations which make it possible to obtain a microbial growth percentage of less than or equal to 20%.
(§4) When the FIC index value is less than or equal to 1, it is considered that the combination of test compounds has a synergistic effect.
The microbial strain Aspergillus niger ATCC 6275, and a double-concentration Sabouraud broth liquid culture medium supplemented with polyoxyethylenated (20 OE) sorbitan monopalmitate (Tween 40 from Croda) and Phytagel© BioReagent were used (i.e. a mixture of 5 g of Phytagel+0.6 g Tween 40+60 g of Sabouraud broth).
(§5) A 96-well microplate and an […] of 32.5° C. are used.
(§6) The incubation time of the microplate is: • from 18 to 24 h under aerobic conditions for Candida albicans ATCC 10231; • from 24 to 30 h under aerobic conditions for Aspergillus niger ATCC 6275.
(§7) A 10% (weight/volume) stock solution was prepared by mixing 1 g of compound in 9 ml of aqueous 1% o agar solution. Successive dilutions were made with the 1% o agar solution. • Test of compounds A and B alone
(§8) 50 μl of each of the daughter solutions obtained containing compound A or B are added to the microplate wells. 100 μl of Sabouraud liquid nutrient broth inoculated with the strain Aspergillus niger and 50 μl of aqueous 1% o agar solution are also added thereto. • Test of compounds A and B as a mixture
(§9) 50 μl of each of the daughter solutions obtained containing compound A and 50 μl of each of the daughter solutions obtained containing compound B are added to the microplate wells. 100 μl of Sabouraud liquid nutrient broth inoculated at double concentration with the strain Aspergillus niger are also added thereto.
A positive microbial growth control was also prepared. The positive microbial growth control corresponds to a mixture of 100 μl of aqueous 1% o agar solution with 100 μl of Sabouraud liquid nutrient broth inoculated at double concentration with the strain Aspergillus niger in the absence of compounds A and B.
An absorbance control was performed in parallel on compounds A and B alone. This control corresponds to 100 μl of double concentration sterile Sabouraud liquid nutrient broth+100 μl of double concentration compound A or B.
In the three cases (absorbance control, growth control and test), the final volume present in each of the microplate wells is 200 μl.
In the two cases (test and control), the inoculum represents the concentration of the Aspergillus niger strain present in the final volume of the wells (200 μl) and is between 2 and 6×10^5 cfu/ml of Aspergillus niger.

[2] = test system: Candida albicans ATCC 10231; assay: Synergistic antimicrobial activity as MIC (96-well microplate, optical density at 620 nm), Candida albicans; format: cell-based
From the text: as §1, §2, §3, §4
The microbial strain Candida albicans ATCC 10231 and a double-concentration Sabouraud broth liquid culture medium were used.
as §5, §6, §7, §8, §9
The test as described above (tests, absorbance control and growth control) was performed again to test the combination A and B on the Candida albicans strain.

[3] = Aspergillus niger, growth <= 20%

## OCCCO [B1, 1,3-propanediol]
[1]; 0 A, 0.125 B1 (weight %)
  microbial growth percentage: 77%
[1]; 0 A, 0.25 B1 (weight %)
  microbial growth percentage: 62%
[1]; 0 A, 0.5 B1 (weight %)
  microbial growth percentage: 50%
[1]; 0 A, 1 B1 (weight %)
  microbial growth percentage: 36%
[1]; 0 A, 2 B1 (weight %)
  microbial growth percentage: 11%
[1]; [3]
  % MIC of B1 alone: 2%

## CCCCCCC(O)CO (centres unmarked) [B2, 1,2-octanediol]
[2]; 0 A, 0.025 B2 (weight %)
  microbial growth percentage: 79%
[2]; 0 A, 0.05 B2 (weight %)
  microbial growth percentage: 60%
[2]; 0 A, 0.1 B2 (weight %)
  microbial growth percentage: 23%
[2]; 0 A, 0.2 B2 (weight %)
  microbial growth percentage: 0%
[2]; B2 alone, Candida albicans, growth <= 20%
  MIC B2: 0.2%

## CCOc1cc(CCC(C)=O)ccc1O [A, 4-(3-ethoxy-4-hydroxyphenyl)butan-2-one]
[2]; 0.025 A, 0 B2 (weight %)
  microbial growth percentage: 81%
[2]; 0.025 A, 0 B3 (weight %)
  microbial growth percentage: 78%
[2]; 0.05 A, 0 B2 (weight %)
  microbial growth percentage: 60%
[2]; 0.05 A, 0 B3 (weight %)
  microbial growth percentage: 61%
[2]; 0.1 A, 0 B2 (weight %)
  microbial growth percentage: 27%
[2]; 0.1 A, 0 B3 (weight %)
  microbial growth percentage: 25%
[2]; 0.2 A, 0 B2 (weight %)
  microbial growth percentage: 4%
[2]; 0.2 A, 0 B3 (weight %)
  microbial growth percentage: 3%
[2]; A alone, Candida albicans, test series with B2, growth <= 20%
  % MIC A: 0.2%
[2]; Candida albicans, test series with B3, growth <= 20%
  % MIC of A alone: 0.2%
[1]; 0.025 A, 0 B1 (weight %)
  microbial growth percentage: 42%
[1]; 0.025 A, 0 B3 (weight %)
  microbial growth percentage: 39%
[1]; 0.05 A, 0 B1 (weight %)
  microbial growth percentage: 25%
[1]; 0.05 A, 0 B3 (weight %)
  microbial growth percentage: 32%
[1]; 0.1 A, 0 B1 (weight %)
  microbial growth percentage: 10%
[1]; 0.1 A, 0 B3 (weight %)
  microbial growth percentage: 12%
[1]; Aspergillus niger, test series with B1, growth <= 20%
  % MIC of A alone: 0.1%
[1]; Aspergillus niger, test series with B3, growth <= 20%
  % MIC of A alone: 0.1%

## CCCCCCCCC(O)CO (centres unmarked) [B3, 1,2-decanediol]
[2]; 0 A, 0.0125 B3 (weight %)
  microbial growth percentage: 45%
[2]; 0 A, 0.025 B3 (weight %)
  microbial growth percentage: 3%
[2]; Candida albicans, growth <= 20%
  % MIC of B3 alone: 0.025%
[1]; 0 A, 0.0125 B3 (weight %)
  microbial growth percentage: 42%
[1]; 0 A, 0.025 B3 (weight %)
  microbial growth percentage: 10%
[1]; [3]
  % MIC of B3 alone: 0.025%
